# Laboratory results as given in patent publication US20220235255A1, “FLUORINE SUBSTITUTED UNSYMMETRICAL ETHERS, AND COMPOSITIONS, METHODS AND USES INCLUDING SAME” (HONEYWELL INTERNATIONAL INC., priority 2021, published 2022).
# Assays:
# Type in all cases: physicochemical
# [1] = Flash point / non-flammability, ASTM D3828-16a, NFPA 30
# Description: Flash Point refers the lowest temperature at which vapors of the liquid will keep burning after the ignition source is removed as determined in accordance with ASTM D3828-16a.
# The flash point of a thermal management composition or fluid refers the lowest temperature at which vapours of the composition will keep burning after the ignition source is removed as determined in accordance with ASTM D3828-16a.
# Normal boiling point = experiment: Normal boiling point
# [2] = Dielectric constant, ASTM D150-11, room temperature, 20 GHz
# Description: Dielectric Constant means the dielectric constant as measured in accordance with ASTM D150-11 at room temperature at 20 giga hertz (GHz).
smiles,measurement,setting,value
"FC(F)(F)COC(C(F)(F)F)C(F)(F)F [Compound 1A, propane, 2-(2′,2′,2′-trifluorethoxy)-(1,1,1,3,3,3-hexafluoro)]",flash point,[1],no flash point
same,normal boiling point,Normal boiling point,about 69 °C
same,dielectric constant,[2],below 4
